Experiment in all cases: NCI anticancer screen, dose series, 48 h
The test system of assay [1] is CAKI-1 renal.
The subject of assay [2] is LOX IMVI melanoma.
Assay [3] has as its system UACC-257 melanoma.
Assay [4] deals with OVCAR-4 ovarian.
The test system of assay [5] is HOP-62 NSCLC.
The test system of assay [6] is SK-MEL-28 melanoma.
Assay [7] relates to HCT-116 colon.
In assay [8] the test system is A498 renal.
The test system of assay [9] is UO-31 renal.
Assay [10] concerns NCI/ADR-RES ovarian.

Several values for one entry are separate records, joined by “and”; a condition that tells them apart may be missing. Equal entries are not always repeated.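 Where inhibition never reached the appropriate level, the endpoint shown equals the highest concentration tested. Otherwise, values were interpolated linearly from a five-concentration, 48-hour dose response in 96-well plates. At the GI50, growth is halved. Definition used: TGI = concentration required for complete inhibition of growth.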

As for `C/C(=C1/N=C(c2ccccc2)OC1=O)c1ccc(C)cc1`, the TGI in assay [1], in [2], in [3], in assay [4], in assay [5] and in [6] was greater than 100 µM each time. In addition, the TGI in [7] and in assay [8] was greater than 100 µM each time.

As to `CCOC(=O)C1(Br)C(c2ccccc2)NC(=O)N(C2OC(COC(=O)c3ccccc3)C(OC(=O)c3ccccc3)C2OC(=O)c2ccccc2)C1(C)Br` (configuration not stated), the TGI in assay [1] is greater than 100 µM; in [2] it was greater than 100 µM; in assay [3], 52.4 µM; in [4] it was 43.4 µM; in assay [5], greater than 100 µM; in assay [6], greater than 83.8 µM. Besides, the TGI was 52.2 µM in [7], greater than 94.8 µM in [9] and greater than 100 µM in [8].

As to `NC1=NN(c2ccccc2)C(=O)C1/C(=N\NC(=O)c1cc2ccccc2cc1O)C(=O)Nc1nc([N+](=O)[O-])cs1` (configuration not stated), the TGI in [1] is 99 µM; in assay [2], 55.4 µM; in assay [3], 64.4 µM; in assay [4], greater than 100 µM; in assay [5], greater than 100 µM; in [6] it was greater than 100 µM. Further, the results for the TGI in assay [7], in [9] and in [8] were greater than 87.9 µM, 30.3 µM and greater than 100 µM, respectively.

Turning to `O=C(O)c1c([N+](=O)[O-])cc(C(F)(F)F)cc1[N+](=O)[O-]`, the TGI in assay [1], in assay [2], in [3], in assay [4], in [5] and in [6] was greater than 100 µM each time. The TGI in assay [7], in [9] and in [8] was greater than 100 µM each time.

On to `O=C(c1ccco1)c1ccccc1C(=O)c1ccco1`, for which the TGI in [1], in [2], in assay [3], in [4], in assay [5] and in assay [6] was greater than 100 µM in each case. The TGI in [7], in [9] and in [8] was greater than 100 µM throughout.

As to `CN(C)CCNC(=O)c1cccc2ccc(-c3cccnc3)nc12`, the TGI is 32.9 µM in [1]; 15.1 µM in assay [2]; 15 µM in assay [3]; 36.9 µM in assay [4]; 19.2 µM in [5]; 24.3 µM in [6]. Also, the values for the TGI in [7], in [9] and in assay [8] were 13.1 µM, 9.71 µM and 8.22 µM, respectively.

`COc1cc[c]([Sb]([Br])([CH]=C(C)C)([CH]=C(C)C)[CH]=C(C)C)cc1`: the GI50 in [1] is 30.7 µM; in assay [2], 15.7 µM; in assay [3] it was 3.45 µM; in assay [4], 5.89 µM; in assay [5], 29.5 µM; in assay [6] it was 2.98 µM. Also, the GI50 is 4.78 µM in [7], 29.5 µM in assay [9] and 28.8 µM in assay [8]. The TGI was greater than 100 µM in assay [1]; greater than 100 µM in assay [2]; greater than 100 µM in [3]; greater than 100 µM in assay [4]; greater than 100 µM in assay [5]; 93.5 µM in [6]. In addition, the TGI in [7] was 73.7 µM; in assay [9], 73.1 µM; in assay [8], greater than 100 µM.

Take `CCCCCCCCCCCCC/C=C1\C[C@H](O)COC1=O`: the TGI in assay [1] amounted to 32.9 µM; in [3] it was 28.4 µM; in assay [4] it was 32.7 µM; in [5] it was 31.8 µM; in assay [6] it was 30.3 µM; in [7], 31.2 µM. Besides, the TGI in [9] stood at 32.6 µM; in assay [8], 33.7 µM.

As for `CC1(C(=O)NCCN(CCNC(=O)C2(C)CC3(C)CC(C)(C2)C(=O)NC3=O)CCNC(=O)C2(C)CC3(C)CC(C)(C2)C(=O)NC3=O)CC2(C)CC(C)(C1)C(=O)NC2=O` (configuration not stated), the TGI in assay [1], in assay [3], in assay [4], in assay [5], in assay [6] and in assay [7] was greater than 100 µM each time. The TGI in [9] and in [8] was greater than 100 µM throughout.

On to `COc1ccc2nc3ccccc3c(NCCCCCN(CCCl)CCCl)c2c1`, for which the TGI in [2] turned out to be 0.376 µM; in assay [4], 0.771 µM; in [5] it was 0.525 µM; in assay [6], 1.19 µM; in assay [9], 0.418 µM.

As to `O=C(c1ccccn1)c1nc(-c2ccc(Cl)c(Cl)c2)nc2ccc(Cl)cc12`, the TGI is greater than 100 µM in [1]; greater than 100 µM in [3]; greater than 100 µM in [4]; greater than 100 µM in assay [5]; greater than 100 µM in assay [6]; 33.4 µM in assay [7]. Also, the TGI in assay [9] and in assay [8] was greater than 100 µM throughout.

Regarding `COc1cc(-c2cc(-c3nc4cc(Cl)c(Cl)cc4[nH]3)[nH]n2)cc(OC)c1OC`, the GI50 was 3.81 µM in assay [1]; 3.25 µM in assay [10]; 3.77 µM in [3]; 2.21 µM in [4]; 3.43 µM in assay [5]; 3.07 µM in [6]. In addition, the GI50 in [7] was 2.78 µM; in assay [9] it was 2.47 µM; in assay [8] it was 4.21 µM. Moreover, the TGI in [1] is 12.9 µM; in assay [10], greater than 100 µM; in [3] it was 14.3 µM; in assay [4], 6.77 µM; in assay [5] it was 11 µM; in [6] it was 12.3 µM. Further, the TGI in [7] was determined as 10.3 µM; in assay [9], 8.48 µM; in [8] it was 28.3 µM.

As to `COc1ccc2[nH]c3c(C)c4cc[n+](C)cc4c(C)c3c2c1`, the GI50 in assay [2] was 3.98 µM and 3.32 µM; in assay [10] it was 7.91 µM and 8.4 µM; in [3], 6.27 µM and 5.41 µM; in assay [4], 2.18 µM; in assay [5], 0.311 µM and 0.24 µM; in assay [6], 3.07 µM. Moreover, the GI50 in [7] is 0.578 µM and 1.14 µM; in assay [9], 13.6 µM and 15.6 µM. Further, the TGI was 37 µM [middle of 4 runs] in [2]; 54.5 µM [middle of 4 runs] in assay [3]; 15.9 µM [middle of 4 runs] in assay [4]; 2.24 µM [middle of 4 runs] in [5]; 10.8 µM [middle of 4 runs] in assay [6]; 51.9 µM [middle of 4 runs] in [8].

For `C/C=C/C(=O)[C@@H](O)C(C)C`, the TGI in assay [1], in assay [3], in assay [4], in assay [6], in [7] and in assay [9] was greater than 100 µM throughout.

For the compound `Clc1ccccc1C1N2CCCCC2[C@@H]2c3[nH]c4ccccc4c3CCN12` (some centres not stated), the TGI came out at 42.2 µM in [3]; 44.4 µM in assay [4]; 59.3 µM in assay [5]; 34.2 µM in [6]; 32.6 µM in [7]; 39 µM in [9]. For the same compound, in assay [8], the TGI is 30.3 µM.

Consider `N.N.N.N.N.N#N.[Cl-].[Os+7]`, for which the GI50 in assay [1], in assay [2], in assay [4], in [6], in assay [7] and in [9] was greater than 100 µM in each case. For the same compound, the TGI in assay [1], in assay [2], in [4], in [6], in assay [7] and in assay [9] was greater than 100 µM throughout.

Turning to `CCCCNC(=O)OCC(COc1ccccc1OC)OC(=O)NCCCC` (configuration not stated), the TGI in assay [1], in [2], in assay [3], in assay [4], in [5] and in assay [6] was greater than 100 µM each time. The TGI in assay [7], in assay [9] and in assay [8] was greater than 100 µM throughout.

For the compound `C[C@@H]1[C@H]2[C@H](C=C3[C@@H]4CC[C@H]5Cc6nc7c(nc6C[C@]5(C)[C@H]4C[C@@H](O)[C@@]32C)C[C@@H]2CC[C@H]3C4=C[C@@H]5O[C@@]6(CC[C@](C)(CO)O6)[C@@H](C)[C@@]5(O)[C@@]4(C)[C@H](O)C[C@@H]3[C@@]2(C)C7)O[C@]12CCC(C)(C)O2`, the GI50 in assay [2] was 0.51 µM; in assay [10] it was 11 µM; in [3] it was 13.9 µM; in assay [4], 7.05 µM; in assay [5] it was 0.861 µM; in [6] it was 0.518 µM. Moreover, the GI50 was 0.69 µM in assay [7], 0.275 µM in assay [9] and 0.236 µM in [8]. Besides, the TGI in assay [2] is 3.6 µM; in [10], greater than 100 µM; in [3], 99.2 µM; in assay [4], greater than 69.7 µM; in assay [5] it was 5.73 µM; in [6], 21.3 µM. The figures for the TGI in assay [7], in assay [9] and in [8] were 31.2 µM, 1.54 µM and 0.543 µM, respectively.

`COc1ccc(OC)c(/C=C/C(=O)C(C)(C)C)c1`: the TGI in assay [1] is 39.1 µM; in assay [2], 40.6 µM; in assay [4], 49 µM; in [5] it was 50.8 µM; in assay [6], 31.8 µM; in assay [7], 31.8 µM. For the same compound, the TGI in [8] turned out to be 80 µM.

With `O=c1c2cc(Br)ccc2nc(-c2ccccc2)n1NCC1(O)OCC(O)C(O)C1O` (configuration not stated), the TGI in assay [1], in [2], in assay [3], in [4], in [5] and in assay [6] was greater than 100 µM each time. The TGI in assay [7], in assay [9] and in assay [8] was greater than 100 µM each time.

As for `CSc1c(S(C)=O)[nH]c2cc(Br)cc(Br)c12` (configuration not stated), the TGI is 74.3 µM in [1]; 31.9 µM in [2]; greater than 100 µM in assay [3]; 43.4 µM in assay [6]; 32.7 µM in assay [7]; 48.7 µM in [9]. The TGI in [8] came out at 62.1 µM.

For `Cc1cc2c(=O)cc(-c3ccc(C(F)(F)F)cc3)oc2c(C(=O)O)c1C`, the TGI in [1], in assay [2], in assay [3], in assay [4], in assay [6] and in assay [7] was greater than 100 µM throughout. Moreover, the TGI in [9] was greater than 100 µM.

Take `CC(C)[C@H]1CO[C@@H]2O[C@H](C)CC(=O)N21`: the TGI in [1], in [3], in assay [4], in assay [5], in [6] and in assay [7] was greater than 100 µM throughout. For the same compound, the TGI in [9] was greater than 100 µM.

As for `C=CC1(c2ccccc2Cl)N/C(=C/OCC)CO1` (configuration not stated), the TGI in assay [1] is greater than 100 µM; in [2], 55.3 µM; in assay [3], greater than 100 µM; in assay [4], greater than 100 µM; in assay [5], greater than 100 µM; in [6], greater than 100 µM. Moreover, the TGI in assay [7], in [9] and in [8] was greater than 100 µM in each case.

As for `Clc1ccccc1-c1nc(-c2ccncc2)no1`, the TGI in assay [1], in assay [10], in assay [3], in assay [4], in assay [5] and in [6] was greater than 100 µM in each case. Also, the TGI in assay [7], in assay [9] and in assay [8] was greater than 100 µM each time.

On to `NC(=S)N/N=C1\C(=O)N(CCc2ccccc2)C(=O)C1C(=O)NCCc1ccccc1` (configuration not stated), for which the TGI in assay [1], in assay [2], in assay [3], in assay [4], in [5] and in assay [6] was greater than 100 µM each time. In addition, the TGI in assay [7], in assay [9] and in assay [8] was greater than 100 µM throughout.

As for `Cc1ccc(/C=N/NS(=O)(=O)c2ccccc2)cc1`, the TGI in assay [1], in assay [2], in [3], in assay [4], in assay [5] and in assay [6] was greater than 100 µM throughout. For the same compound, the TGI in [7], in assay [9] and in [8] was greater than 100 µM each time.

These data come from PubChem BioAssay (NCI).
